Results: ChEMBL document CHEMBL1125751, “On the optimization of hydrophobic and hydrophilic substituent interactions of 2,4-diamino-5-(substituted-benzyl)pyrimidines with dihydrofolate reductase” (J Med Chem, 1991)

Tests used:
[1] = target: T1, Dihydrofolate reductase (Homo sapiens) (UniProt P00374); test: (§1) Selectivity index against Escherichia coli DHFR.; type: functional
T1 sequence (whole entry): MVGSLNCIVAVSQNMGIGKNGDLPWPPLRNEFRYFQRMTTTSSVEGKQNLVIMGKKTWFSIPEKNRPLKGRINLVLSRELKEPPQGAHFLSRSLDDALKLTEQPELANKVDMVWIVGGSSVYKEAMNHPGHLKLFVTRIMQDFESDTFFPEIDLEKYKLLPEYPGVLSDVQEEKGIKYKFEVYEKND

[2] = target: T1, Dihydrofolate reductase (Homo sapiens); test: (§2) Selectivity index against Lactobacillus casei DHFR.; type: functional
[3] = target: T2, Dihydrofolate reductase (Gallus gallus, UniProt P00378); test: Compound was evaluated for inhibitory activity against chicken dihydrofolate reductase; settings: read-out: Log 1/Ki (converted)
T2 sequence (P00378 whole entry): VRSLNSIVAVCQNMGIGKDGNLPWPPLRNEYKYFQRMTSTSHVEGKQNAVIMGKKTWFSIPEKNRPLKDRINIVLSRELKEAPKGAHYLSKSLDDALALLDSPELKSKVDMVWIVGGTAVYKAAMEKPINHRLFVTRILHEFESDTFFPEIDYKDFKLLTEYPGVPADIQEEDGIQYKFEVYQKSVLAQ

[4] = as §1; type: functional
[5] = as §2; type: functional

Structure (SMILES)	SI [1]	SI [2]	Ki [3] [µM]	SI [4]	SI [5]
CCc1cc(Cc2cnc(N)nc2N)cc(CO)c1CO	4.28	3.13	–	–	–
CCc1cc(Cc2cnc(N)nc2N)cc(NC(C)=O)c1CO	–	–	708	4.87	3.36
